Data: patent US20210251229A1, “PLANT REGULATOR COMPOSITIONS” (Suntton Company Limited, priority 2020, published 2021)

Tests used:
Assay type in all cases: in vivo
[1] = system: spring wheat (Scotia variety); assay: Spring wheat (Scotia variety) field trial, Arnprior, Ontario: spray at late booting stage, yield; settings: EBR 0.05 ppm applied with Ethephon 0.18%
Method: A spring wheat (Scotia variety) trial is carried out in Arnprior, Ontario, Canada. Typically, Ethephon alone has been used to reduce lodging in wheat. However, it can lead to the loss of yield, especially when it is sprayed at late booting stage.

Cherry (Bing variety) = Cherry (Bing variety) field trials, Lodi, Calif.: growth regulation effects, spray at straw color; settings: sprayed at straw color, GA3 4.0 ppm (EBR 0.1 ppm in the combination)
Method: Two Cherry (Bing variety) trials are conducted in Lodi, Calif. to compare growth regulation effects of Gibberellic acid (GA3) and Composition of GA3 and 24-epibrassinolide (EBR). Typically, GA3 alone is commonly used on cherry at straw color for the elongation of storage life, but the application of GA3 often causes uneven ripening. [table]

[2] = system: table grape (Flame variety); assay: Table grape (Flame variety) field trial, Coachella, Calif.: spray at fruit size 12 mm; settings: sprayed at fruit size 12 mm, GA3 2.00 ppm (EBR 0.05 ppm in the combination), 100 gal water per acre
Text: A table grape (Flame variety) trial was set up in Coachella, Calif. Typically, GA3 alone has been used as a growth stimulator on table grape at sizing (berry size 10-14 mm), but it can cause uneven ripening and size of berry. [table]

[3] = system: table grape (Thomson green seedless variety); assay: Table grape (Thomson green seedless variety) field trial, Mecca, Calif.: spray at fruit size 12 mm; settings: sprayed at fruit size 12 mm, GA3 4.0 ppm (EBR 0.1 ppm in the combination)
Method: A table grape (Thomson green seedless variety) trial is carried out in Mecca, Calif. Typically, GA3 alone has been used as growth stimulator on table grape at sizing (berry size 10-14 mm), but it can cause uneven ripening and size of berry. [table]

Structure (SMILES) | Effect of EBR on loss of yield caused by Ethephon [1] | Ripening / uniformity of color and size (Cherry (Bing variety)) | Fruits picked (Cherry (Bing variety); 100 gal water per acre) | Number of picks needed (Cherry (Bing variety); 100 gal water per acre) | Fruits picked [2] | Number of picks needed [2] | Ripening / uniformity of color and size [3] | Fruits picked ([3]; 100 gal water per acre)
CC(C)[C@@H](C)[C@@H](O)[C@H](O)[C@@H](C)[C@H]1CC[C@H]2[C@@H]3COC(=O)[C@H]4C[C@H](O)[C@H](O)C[C@]4(C)[C@H]3CC[C@]12C [EBR, 24-epibrassinolide] | save/reverse the loss of yield | – | – | – | – | – | – | –
C=C1C[C@]23C[C@@]1(O)CC[C@H]2[C@@]12C=C[C@H](O)[C@@](C)(C(=O)O1)[C@H]2[C@@H]3C(=O)O [GA3, Gibberellic acid] | – | the uneven ripening | Picked 85% of fruits | four | Picked 90% of fruits | four | the uneven ripening | Picked 85% of fruits
